Drawing on patent US9187438B2, “Derivatives of benzothiazines, preparation thereof and application thereof as drugs” (PIERRE FABRE MEDICAMENT, priority 2009, dated 2015), this text covers inhibition and EC50 for 9 molecules.

The structures appear in SMILES notation.

Holding throughout (assay type): biochemical
In one assay the target is T1, 11β-HSD2 (Homo sapiens, UniProt P80365).
T1 construct: of human kidney microsomes (Xenotech); tissue Xenotech; host or cells: human kidney microsomes
T1 sequence (P80365 1-405): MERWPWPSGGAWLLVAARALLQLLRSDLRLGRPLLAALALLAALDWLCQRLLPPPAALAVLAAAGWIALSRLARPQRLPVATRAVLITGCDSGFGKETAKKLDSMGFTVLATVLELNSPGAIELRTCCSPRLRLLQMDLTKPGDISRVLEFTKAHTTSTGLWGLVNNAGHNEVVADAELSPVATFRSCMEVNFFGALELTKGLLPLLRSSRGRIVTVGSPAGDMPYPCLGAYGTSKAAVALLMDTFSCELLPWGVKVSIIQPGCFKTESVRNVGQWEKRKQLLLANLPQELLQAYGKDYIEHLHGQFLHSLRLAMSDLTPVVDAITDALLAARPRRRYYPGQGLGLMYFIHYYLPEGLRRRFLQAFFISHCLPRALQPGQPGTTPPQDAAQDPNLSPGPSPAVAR
Description: Human enzymatic activity of 11β-HSD2 from kidney microsomes, [3H]cortisol to [3H]cortisone conversion, SPA (inhibition %). The settings on record: 10^−5M inhibitor, read-out: 11β-HSD2/SPA % inhib. (10^−5M). On the procedure: 3) Human Enzymatic Activity of 11β-HSD2 from Kidney Microsomes after Treatment with the Inhibitor Compounds (Inhibition %).
The enzymatic test is based on the conversion of [^3H] cortisol into [^3H] cortisone by 11β-HSD2. The enzymatic reaction is started by adding 0.75 μg (standardization of this amount in order to obtain 80% of the conversion maximum of the substrate under the experimental conditions) of human kidney microsomes (Xenotech) to wells (Optiplate™ 96-well plates, a reaction volume of 50 μL) containing 8 nM [1,2,6,7-^3H] cortisol (specific activity of 70-75 Ci/mmol, Amersham-GE Healthcare) in a 50 mM HEPES buffer (pH 7.4) with 100 mM KCl, 5 mM NaCl, 2 mM MgCl2, 1 mM NAD^+ and the inhibitor compound or the carrier (1% DMSO). The sealed plates are centrifuged at low speed in order to mix the components and then incubated for 2 hours at 37° C. (enzymatic phase). The enzymatic reaction is stopped by adding 70 μl/well of complex [10 mg/mL of yttrium silicate SPA beads associated with protein A (GE Healthcare) and pre-incubated with an anti-cortisol monoclonal antibody (East Coast Biologics, ME)] containing 10 μM of 18β-glycerrhitinic acid. The plates are sealed and then incubated under slow orbital stirring for 2 hours at room temperature (detection phase). After centrifugation, the measurements are conducted with a scintillation counter TopCount NXT (Perkin Elmer). An inhibition percentage for each evaluated compound concentration is calculated relatively to the standard enzymatic activity (carrier 1% DMSO).

The target of assay [1] is T2, 11β-HSD1 (Homo sapiens, UniProt P28845).
T2 construct: adding 1 μg of human hepatic microsome (Xenotech); tissue Xenotech; host or cells: human liver microsomes
T2 sequence (P28845 whole entry): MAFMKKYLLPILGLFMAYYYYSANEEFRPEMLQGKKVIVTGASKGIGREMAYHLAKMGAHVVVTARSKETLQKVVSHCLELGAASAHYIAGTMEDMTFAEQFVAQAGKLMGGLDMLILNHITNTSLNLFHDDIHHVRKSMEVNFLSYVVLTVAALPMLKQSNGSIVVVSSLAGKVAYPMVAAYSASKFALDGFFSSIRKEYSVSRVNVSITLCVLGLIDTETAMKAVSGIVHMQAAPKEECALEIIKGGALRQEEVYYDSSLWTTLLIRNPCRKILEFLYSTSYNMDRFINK
Description: Human enzymatic activity of 11β-HSD1 from liver microsomes, [3H]cortisone to [3H]cortisol conversion, SPA (inhibition % or EC50). As to conditions: for inhibition at 1 µM: 10^−6M inhibitor, read-out: 11β-HSD1/SPA % inhib. (10^−6M). On the procedure:
The enzymatic test is based on the conversion of [^3H] cortisone into [^3H] cortisol by 11β-HSD1. […] The sealed plates are centrifuged at low speed for mixing the components and then incubated for 2 hours at 37° C. (enzymatic phase). The enzymatic reaction is stopped by adding 70 μl/well of complex [10 mg/mL of yttrium silicate SPA beads associated with the protein A (GE Healthcare) and pre-incubated with an anti-cortisol monoclonal antibody (East Coast Biologics, ME)] containing 10 μM of 18β-glycerrhitinic acid. The plates are sealed and then incubated under slow orbital stirring for 2 hours at room temperature (detection phase).
Background: Microsomes from liver hold many membrane-bound enzymes, among them those of drug oxidation.

Assay [2] has as its target T2, 11β-HSD1. Description: Human enzymatic activity of 11β-HSD1 from liver microsomes, cortisone to cortisol conversion, HTRF detection (inhibition %). As to conditions: 10^−6M inhibitor, read-out: 11β-HSD1/HTRF % inhib. (10^−6M). On the procedure: 1) Human Enzymatic Activity of 11β-HSD1 from Liver Microsomes after Treatment with Inhibitor Compounds (Inhibition %).
The enzymatic test is based on the conversion of cortisone into cortisol by 11β-HSD1. […] A calibration curve of known cortisol concentrations is produced simultaneously under the same experimental conditions. The plates are incubated for 2 hours at 37° C. (enzymatic phase). By adding 25 μL of conjugate cortisol-d2 and of 25 μL of anti-cortisol anαtibody labeled with Eu^3+ cryptate per well, the enzymatic reaction may be stopped and after incubation of 2 hours at room temperature the formed cortisol (detection phase) may be quantified by HTRF® (CIS bio international, reference 62CO2PEC). The fluorescence measurements are conducted with a Fusion™ α(Perkin Elmer) reader. For each well, fluorescence is measured at 620 nm and at 665 nm. A ratio (λ665 nm/λ620 nm) and a specific FRET signal are calculated, with which an inhibition percentage may be determined for each concentration of evaluated inhibitor compound.

`CN1C(C(=O)c2ccc3ccccc3c2)=C(O)c2ccccc2S1(=O)=O` [Example 1, (4-Hydroxy-2-methyl-1,1-dioxo-2H-benzo[e][1,2]thiazin-3-yl)(naphthalen-2-yl)methanone]: at 11β-HSD2, the inhibition at 10 µM was determined as 42%. On 11β-HSD1 [1], a half-maximal response (EC50) required 16 nM and the inhibition at 1 µM turned out to be 97%. At 11β-HSD1 [2], the inhibition at 1 µM stood at 99%.

On to `Cc1ccc(C(=O)C2=C(O)c3ccccc3S(=O)(=O)N2C)cc1` [Example 3, (4-hydroxy-2-methyl-2H-1,1-dioxo-benzo[e][1,2]thiazin-3-yl) (4-methylphenyl)methanone], for which the inhibition at 10 µM at 11β-HSD2 amounted to 33%. Also, at 11β-HSD1 [1], the response was half-maximal at 64 nM (EC50) and the inhibition at 1 µM was found to be 93%. For the same molecule, the inhibition at 1 µM on 11β-HSD1 [2] is 99%.

Consider `CCN1C(C(=O)c2ccc3ccccc3c2)=C(O)c2ccccc2S1(=O)=O` [Example 9, (4-hydroxy-2-ethyl-1,1-dioxo-2H-benzo[e][1,2]thiazin-3-yl)(naphthalen-2-yl)methanone], for which the inhibition at 10 µM at 11β-HSD2 amounted to 5%. At 11β-HSD1 [1], the EC50 (usually the midpoint of the concentration-response curve) came to 60 nM and the inhibition at 1 µM was found to be 88%. In addition, the inhibition at 1 µM on 11β-HSD1 [2] came out at 98%.

Turning to `CN1C(C(=O)c2ccc3ccccc3c2)=C(O)c2ccc(F)cc2S1(=O)=O` [Example 17, (7-Fluoro-4-hydroxy-2-methyl-1,1-dioxo-2H-benzo[e][1,2]thiazin-3-yl)(naphthalen-2-yl)methanone], the inhibition at 10 µM on 11β-HSD2 amounted to 61%. Moreover, on 11β-HSD1 [1], the EC50 stood at 11 nM and the inhibition at 1 µM worked out at 99%. Further, the inhibition at 1 µM on 11β-HSD1 [2] was determined as 100%.

For the molecule `CCN1C(C(=O)c2ccc3ccccc3c2)=C(O)c2ccc(F)cc2S1(=O)=O` [Example 18, (7-Fluoro-4-hydroxy-2-ethyl-1,1-dioxo-2H-benzo[e][1,2]thiazin-3-yl)(naphthalen-2-yl)methanone], on 11β-HSD2, the inhibition at 10 µM amounted to 25%. Moreover, the EC50 at 11β-HSD1 [1] is 69 nM. For the same molecule, the inhibition at 1 µM amounted to 91% on 11β-HSD1 [1] and 100% at 11β-HSD1 [2].

On to `CC(=O)OC1=C(C(=O)c2ccc3ccccc3c2)N(C)S(=O)(=O)c2ccccc21` [Example 46, Acetic acid 2-methyl-3-(naphthalene-2-carbonyl)-1,1-dioxo-2H-benzo[e][1,2]thiazin-4-yl ester], for which the inhibition at 10 µM on 11β-HSD2 was found to be 63%. Moreover, the EC50 at 11β-HSD1 [1] was determined as 72 nM. Besides, the inhibition at 1 µM came out at 91% at 11β-HSD1 [1] and 100% at 11β-HSD1 [2].

As for `CN1C(C(=O)c2ccc3ccccc3c2)=C(OC(=O)COc2ccccc2)c2ccccc2S1(=O)=O` [Example 54, Phenoxyacetic acid 2-methyl-3-(naphthalene-2-ylcarbonyl)-1,1-dioxo-2H-benzo[e][1,2]thiazin-4-yl ester], the inhibition at 10 µM on 11β-HSD2 is 71%. For the same molecule, at 11β-HSD1 [1], it took 27 nM to reach a half-maximal effect (EC50) and the inhibition at 1 µM was 97%. In addition, the inhibition at 1 µM at 11β-HSD1 [2] was 100%.

In the case of `CN1C(C(=O)c2ccc(Cl)c(Cl)c2)=C(O)c2ccccc2S1(=O)=O` [Example 123, (4-hydroxy-2-methyl-1,1-dioxo-2H-benzo[e][1,2]thiazin-3-yl) (3,4-dichlorophenyl)methanone], on 11β-HSD2, the inhibition at 10 µM was determined as 31%. Also, at 11β-HSD1 [1], a half-maximal effect (EC50) was put at 43 nM and the inhibition at 1 µM was determined as 93%. On 11β-HSD1 [2], the inhibition at 1 µM turned out to be 100%.

In the case of `CN1C(C(=O)c2cccc(Br)c2)=C(O)c2ccccc2S1(=O)=O` [Example 142, (3-Bromo-phenyl)-(4-hydroxy-2-methyl-1,1-dioxo-1,2-dihydro-2H-benzo[e][1,2]thiazin-3-yl)-methanone], on 11β-HSD1 [1], the EC50 worked out at 21 nM and the inhibition at 1 µM turned out to be 87%. Besides, on 11β-HSD1 [2], the inhibition at 1 µM was found to be 100%.
